Data as given in US5254572A, “Method and composition for supplementing vitamin B6 where the PN-PLP pathway is disturbed” (priority 1989, dated 1993).
Several values for one entry are separate records, joined by “and”; a condition that tells them apart may be missing. Identical values can stand only once. Entries after “also recorded” stand apart in the source; their conditions may differ.

Assays:
fibroblast cell cultures = assay: Example 27: cellular uptake in fibroblast cell cultures, intracellular PLP content; format: cell-based
Method: Fibroblast cell cultures were cultivated in the usual manner in a medium containing different concentrations of various B6 vitamers, and the intracellular […] content was determined.
When the extracellular PL concentration was 60 nM, intracellular PLP levels reached a concentration of 12 nmol/g cell protein. […] Moreover, when both PN and PL were included in the medium, intracellular PLP accumulation was decreased in comparison with PLP accumulation seen when PL alone (in equimolecular concentrations)was included in the medium.

albumin = conditions: plasma; cited from earlier work
[1] = Plasma PLP increment in critically ill patients on hyperalimentation and additional PN / alleviation of B6 depletion; format: in vivo
Source text: A direct inverse correlation exists between the degree of B6 depletion of critically ill patients and their chances of survival. Medical and surgical complication such as shock, hepatic failure, infection and sepsis, wound dehiscence, incisional hernia, aminoglycoside induced renal failure and impaired skin and mucosal regeneration, hematopoiesis, hormone production and wound repair; multi-organ dysfunction, respiratory distress and also severe depression are substantially more frequent in B6 deficient patients. These conditions are, inter alia, causally related to impairment of immune function, collagen and elastin cross-linking and polyamine synthesis and accumulation. […] However, the correctness or otherwise of any explanations given or mechanisms postulated is not to limit the scope of the invention or to be relevant to the inventive merits of the invention as claimed.

[2] = tested on: estrogen side effects (tryptophane metabolism); assay: Counteracting side effects of elevated estrogen (PMS, OC users); format: in vivo, patients
[3] = tested on: PNP-oxidase in bone marrow aspirate; assay: Conversion of pyridoxine by bone marrow aspirate (PNP-oxidase activity); format: cell-based; conditions: immature cells
Method: To confirm the inability of immature cells to convert pyridoxine into pyridoxal and its phosphate, an aspirate of bone marrow was tested.

[4] = tested on: glutamate-pyruvate-transaminase (GPT); assay: RBC GPT-activity before and after daily oral PN supplementation; format: in vivo, human; conditions: RBC GPT-activity at day 0 and day 28, daily oral PN (10 mg)
Source text: The enzyme glutamate-pyruvate-transaminase (GPT) is a PLP dependent enzyme present in RBC which can be used to assess the utilisation of PN by RBC. In the population, individuals may be divided into 3 different groups corresponding to 3 polymorphic forms of the enzyme (1-1, 25%; 1-2, 50%; 2-2, 25%.

[5] = man; cited from earlier work
[6] = tested on: estrogen side effects (tryptophane metabolism); conditions: cited from earlier work
lipid metabolism = conditions: experimental animals; German patent application P37 05 549.6; cited from earlier work
[7] = tested on: anemia / haemoglobin formation; conditions: 50-200 mg PN/day, one case 600 mg/day; Merrill and Henderson; cited from earlier work
PN-oxidase deficiency = assay: Response of patients with reduced PN-oxidase activity; format: in vivo
[8] = tested on: PLP-phosphatases in red blood cells; assay: Inhibition of PLP-specific phosphatases of red blood cells; format: biochemical
[9] = tested on: anemia / haemoglobin formation; assay: Treatment of anemias; format: in vivo, patients; conditions: cases where conventional therapy is ineffective, pyridoxine refractory anaemias
Babesia canis [10] = assay: Example 4: clinical trials on dogs with B. canis infection; format: in vivo
Method: Babesia canis infection, better known as "biliary fever", is a severe and frequently fatal disease in dogs. It is a protozoal disease involving large-scale destruction of erythrocytes (red blood cells) and loss of haemoglobin. Double blind trials were carried out on two groups of dogs presented to the clinic for treatment of severe B. canis infections. Upon admission, all animals were recumbent with fever, jaundice, and accelerated heart and respiratory rate. All animals were given standard treatment, which consisted of post surgical drip, doxycycline, trypan blue, hepavet, electrolytes and glucose. In the experimental group, a solution of PL was added to the drip (electrolytes, glucose) given to the animals. In the control group, saline was given to replace the PL solution.
The PL solution according to the invention was made up as follows (per vial):
Experimental animals: PL solution according to the invention was given with the drip in such a manner that each patient received 50mg of pyridoxal over a 12 h period. Each animal received only one such course of treatment.
These received saline instead of PL solution under similar conditions. Control animals were selected to resemble experimental animals as closely as possible in respect of race and initial haemoglobin concentration.
**E: denotes experimental animals C: denotes controls, E: denotes changes
per day during the period between the first two series of measurements of
the parameters listed. Normally these represent measurements obtained
immediately after admission (or 1 day later) and again 2 to 4 days later
after treatment has been started.
***Average changes for six animals in each group over the two periods of […]

Babesia canis [11] = assay: Example 4: further clinical trials on dogs with B-canis infection; format: in vivo
Source text: The experiment was repeated with 13 dogs (10 inbred beagles and 3 other mongrels) randomly divided into an experimental and a control group. All animals were infected with Babesia canis by injection of blood from a splenectomised donor dog which led to the development of acute Babesiosis in approximately 3-5 days. All dogs were monitored twice daily until the haematocrit values fell to 0.15 l/l when treatment was started which in the case of all animals consisted of the following:
Electrolytes solution (number 2) for the first […], thereafter Post-Surgisol. Both fluids were administered by means of an intravenous jugular catheter at a rate of 80 ml/kg/24h.
Trypan blue (1%) 1 ml/kg intravenous once only. Berenil 3.5 mg/kg intramuscularly 7 days after the Trypan blue. Heparin, 25 IU/kg subcutaneously three times per day for the first 2 days.
Experimental animals, in addition, received pyridoxal in their infusions at a concentration of 50 mg/l for the entire duration of fluid therapy.
Before the start of treatment, a urine dipstick and sediment examination were performed as well as a complete clinical evaluation and faecal flotation to determine the presence of helminth ova.
Assessment: Temperature pulse and respiration were measured every 6 hours during the first 3 days and a subjective assessment of habitus (grade 1-4) and appetite (1-4) was also made at the same time.
Full haematological and biochemical assessment was performed daily.
Serum alkaline phosphatase determinations were made on days 1 and 3.
Additional trial parameters and measurements consisted of Astrup determinations (before treatment and again 24 hours later) and a ten day survival rate.
Samples for haematology were drawn in evacuated EDTA tubes and for serum chemistries into plain evacuated tubes (cephalic vein).
Plasma PLP and PL as well as RBC-PLP and PL values were determined by means of a HPLC procedure routinely used for human studies.

[12] = tested on: E. Coli induced septic shock; assay: Protective effect in experimentally induced septic shock; format: in vivo, rats
Method: An E. Coli suspension was prepared and serially diluted to the point where an injection of 0.3 ml caused approximately 80% mortality in rats after 12 h. This solution was used as the challenging solution in the following experiment:
Two groups of 6 male rats each were used. The animals were carefully selected so that the average mass in both groups was 210 g (191-219 g in the control group; 194-224 g in the experimental group). A solution containing 43.8 mg/ml of pyridoxal was prepared for i/v and i/p injection. 0.8 ml of this solution afforded 1.0 m mol/kg of PL when injected into a 210 g rat.
At time 0 h, the control group received 0.3 ml saline and the experimental group 0.3 ml of the PL solution. After 1 h all animals in both groups were challenged with 0.3 ml i/v of the E. Coli suspension. Immediately thereafter, the control group received 0.5 ml saline and the experimental group 0.5 ml of the PL solution i/p.
Each entry represents 1 animal, 12 h denoting that the particular animal survived for the full observation period of 12 h. Other entries denote mortalities at the times indicated, e.g. 2 h inspection (all animals were inspected at 1 h intervals and mortalities counted).

[13] = experimental animals or humans; cited from earlier work
[14] = compared with PN; cited from earlier work
[15] = patients destined to die, hyperalimentation and additional PN, even with 200mg/day
[16] = average change for six experimental animals
[17] = change per day, individual animal, 50 mg pyridoxal over 12 h with drip
[18] = change per day, total of experimental group

Cc1ncc(COP(=O)(O)O)c(C=O)c1O [PLP, pyridoxal phosphate]
accumulation of extracellular PLP by the cells (fibroblast cell cultures): not accumulated by the cells
radioactivity in the intracellular fraction (fibroblast cell cultures; incubation with radioactive PLP): very little radioactivity
protein (albumin) binding compared with PL (albumin): substantially more prone to becoming protein (albumin) bound than PL

Cc1ncc(CO)c(CO)c1O [PN, pyridoxine]
increment in plasma PLP, generally [1, 15]: less than 10 nM
increment in plasma PLP, occasionally [1, 15]: less than 1 nM
side effects at high bolus dosage ([2]; high dosage levels (e.g. 200-400 mg daily)): produces side effects
conversion of pyridoxine into pyridoxal and its phosphate [3]: incapable of converting PN into PLP or PL
conversion of pyridoxine into pyridoxal and its phosphate ([3]; listed as pyridoxine): incapable of converting pyridoxine into pyridoxal
slow responders among persons studied [4]: Approximately 20%
rate of increase of intracellular PLP level (fibroblast cell cultures; PN vs PL as extracellular source): increased much more slowly (and in a time dependent manner)
effect of high concentrations on intracellular PLP accumulation (fibroblast cell cultures; high concentrations of PN with PL): suppress intracellular PLP accumulation
plasma half-life [5]: about 12 minutes
dosage necessary for effect in PMS / estrogen side effects ([6]; bolus doses, daily): 200 to 400 mg/day
effect on Tryp. metabolism and associated clinical symptoms ([6]; oral, OC users): repeatedly shown to normalise Tryp. metabolism
lipid lowering effect (lipid metabolism): only a weak lipid-lowering and regulating agent
response rate in pyridoxine-responsive anemias [7]: fewer than half of the cases

Cc1ncc(CO)c(CN)c1O [PM, pyridoxamine]
response compared with PN (PN-oxidase deficiency): respond much more satisfactorily

NCCCCNCCCN [spermidine]
inhibition of PLP-specific phosphatases [8]: inhibited

Cc1ncc(CO)c(C=O)c1O [PL, pyridoxal]
effectiveness to counteract B6 depletion ([1]; compared with PN, also patients who do not respond to PN): substantially more effective than PN
effectiveness / effective dosage rate against side effects of estrogen ([2]; supplementation, particularly over prolonged periods, compared with pyridoxine): effective at dosage rates as low as a few mg/day; also recorded: far more effective
response compared with PN (PN-oxidase deficiency): respond much more satisfactorily
stimulation of haemoglobin formation [9]: capable of stimulating the formation of haemoglobulin
Hb change, average (Babesia canis [10]; [16]): 11.7 g/L
MCHC change, average (Babesia canis [10]; [16]): -0.03 g/dlRC
MCV change, average (Babesia canis [10]; [16]): 0.17 fL
RCC change, average (Babesia canis [10]; [16]): 4.4e+11 L⁻¹
WCC change, average (Babesia canis [10]; [16]): 4.52e+09 L⁻¹
Hb (haemoglobin) change (Babesia canis [10]; [17]): 11.0 g/L and 12.8 g/L and 6.5 g/L and 9.5 g/L and 7.8 g/L and 24.8 g/L
MCHC (mean corpuscular haemoglobin content) change (Babesia canis [10]; [17]): 3.8 g/dlRC and -1 g/dlRC and -2.5 g/dlRC and -1.7 g/dlRC and -0.5 g/dlRC and 2.5 g/dlRC
MCV (mean corpuscular volume) change (Babesia canis [10]; [17]): -6 fL and 2 fL and 0 fL and 3 fL and 1 fL
RCC (red cell count) change (Babesia canis [10]; [17]): 4.1e+11 L⁻¹ and 4.9e+11 L⁻¹ and 4.7e+11 L⁻¹ and 2.3e+11 L⁻¹ and 6.4e+11 L⁻¹
WCC (white cell count) change (Babesia canis [10]; [17]): 3e+09 L⁻¹ and -8.4e+09 L⁻¹ and 2.5e+09 L⁻¹ and 3.1e+09 L⁻¹ and 1.05e+09 L⁻¹ and 1.79e+10 L⁻¹
Hb change, total (Babesia canis [10]; [18]): 70 g/L
MCHC change, total (Babesia canis [10]; [18]): -8.2 g/dlRC
MCV change, total (Babesia canis [10]; [18]): 1 fL
RCC change, total (Babesia canis [10]; [18]): 2.65e+12 L⁻¹
WCC change, total (Babesia canis [10]; [18]): 2.715e+10 L⁻¹
recovery of haemoglobin levels (Babesia canis [10]; experimental animals): amazing recovery of haemoglobin levels
haematological differences to control group (haemoglobin, RCC, WCC) (Babesia canis [10]; experimental vs control): Large, significant differences
mean corpuscular hemoglobin (Babesia canis [11]; day 5, experimental animals): statistically significantly increased
mean corpuscular volume (Babesia canis [11]; day 5, experimental animals): statistically significantly increased
clinical improvement (Babesia canis [11]; experimental group): definite clinical improvement
deaths (Babesia canis [11]; experimental group, 50 mg/l in infusions, two died in control group): none
reticulocyte count response (Babesia canis [11]; experimental vs control): responded quicker
normablast count profile (Babesia canis [11]; first 3 days, continuous downward trend in controls): inverse trend
alkaline phosphatase values (Babesia canis [11]; serum, day 1 to day 3, decreased in controls): large increase
difference in survival rate ([12]; PL-supplemented vs control, 12 h): statistically significant difference in survival rate
survival time ([12]; individual rat, 0.3 ml i/v 1 h before and 0.5 ml i/p after challenge, 12h = survived full period): 1 h and 3 h (3×) and 12 h (2×)
intracellular PLP level (fibroblast cell cultures; extracellular PL concentration 60 nM): 12 nmol/g cell protein
intracellular PLP level, maximum value (fibroblast cell cultures; extracellular PL concentration 600 nM): 120 nmol/g cell protein
cellular uptake (fibroblast cell cultures; further increase of extracellular concentration): saturable process
effect of extracellular vitamer on intracellular PLP level (fibroblast cell cultures; relative effectiveness of PL and PN): more effective than PN
adverse effects [13]: No adverse effects
lipid lowering effect (lipid metabolism): unexpectedly strong lipid lowering effects
in vitro stability [14]: far less stable

NCCCNCCCCNCCCN [spermine]
inhibition of PLP-specific phosphatases [8]: inhibited
